Test results as given in ChEMBL document CHEMBL1697781, “Assessment of the health effects of chemicals in humans: II. Construction of an adverse effects database for QSAR modeling” (Curr Drug Discov Technol, 2004).

Key:
Settings in all cases: human; call rule not given here
[1] = system: Hepatotoxicity; assay: FDA HLAED, gamma-glutamyl transferase (GGT) increase
[2] = system: Hepatotoxicity; assay: FDA HLAED, alkaline phosphatase increase
[3] = system: Hepatotoxicity; assay: FDA HLAED, serum glutamic oxaloacetic transaminase (SGOT) increase
[4] = system: Hepatotoxicity; assay: FDA HLAED, lactate dehydrogenase (LDH) increase
[5] = system: Hepatotoxicity; assay: FDA HLAED, serum glutamic pyruvic transaminase (SGPT) increase
[6] = system: Hepatotoxicity; assay: FDA HLAED, liver enzyme composite activity
For GGT Increase - Index Value in this document: reference of the scale not given here.
For LDH Increase - Index Value in this document: reference of the scale not given here.

| Structure (SMILES) | GGT Increase - Activity Score [1] | GGT Increase - Index Value [1] | GGT Increase - Number of Reports [1] | Alkaline Phosphatase Increase - Activity Score [2] | Alkaline Phosphatase Increase - Index Value [2] | Alkaline Phosphatase Increase - Number of Reports [2] | SGOT Increase - Activity Score [3] | SGOT Increase - Index Value [3] | SGOT Increase - Number of Reports [3] | LDH Increase - Activity Score [4] | LDH Increase - Index Value [4] | LDH Increase - Number of Reports [4] | SGPT Increase - Activity Score [5] | SGPT Increase - Index Value [5] | SGPT Increase - Number of Reports [5] | Composite Activity - Active [6] | Composite Activity - Marginal [6] | Composite Activity - Score [6] | other results |
| --- | --- | --- | --- | --- | --- | --- | --- | --- | --- | --- | --- | --- | --- | --- | --- | --- | --- | --- | --- |
| CC(C)(C#N)c1cc(Cn2cncn2)cc(C(C)(C)C#N)c1 [ANASTROZOLE] | Inactive | 0 | < 4 | Inactive | 6.4 | < 4 | Active | 16.1 | >= 4 | Inactive | 6.4 | < 4 | Active | 12.8 | >= 4 | 2 | 0 | Active | – |
| Nc1cc(Cl)c(N=C2NCCN2)c(Cl)c1 [APRACLONIDINE] | Inactive | 0 | < 4 | Inactive | 0 | < 4 | Inactive | 0 | < 4 | Inactive | 0 | < 4 | Inactive | 0 | < 4 | 0 | 0 | Inactive | – |
| COc1ccc(CCN2CCC(Nc3nc4ccccc4n3Cc3ccc(F)cc3)CC2)cc1 [ASTEMIZOLE] | Inactive | 1.4 | >= 4 | Inactive | 1.2 | >= 4 | Inactive | 2.6 | >= 4 | Inactive | 0.4 | < 4 | Inactive | 2.8 | >= 4 | 0 | 0 | Inactive | – |
| CC(C)NCC(O)COc1ccc(CC(N)=O)cc1 (configuration not stated) [ATENOLOL] | Inactive | 0 | < 4 | Inactive | 0.1 | < 4 | Inactive | 0.5 | >= 4 | Inactive | 0.1 | < 4 | Inactive | 0.3 | >= 4 | – | – | – | Composite Activity - Active ([6]; Liver): 0; Composite Activity - Marginal ([6]; Liver): 0; Composite Activity - Score ([6]; Liver): Inactive |
| CC(C)c1c(C(=O)Nc2ccccc2)c(-c2ccccc2)c(-c2ccc(F)cc2)n1CC[C@@H](O)C[C@@H](O)CC(=O)O [ATORVASTATIN] | Active | 6.2 | >= 4 | Inactive | 1.7 | >= 4 | Active | 6.5 | >= 4 | Inactive | 2.5 | >= 4 | Active | 7.3 | >= 4 | – | – | – | Composite Activity - Active ([6]; Liver): 3; Composite Activity - Marginal ([6]; Liver): 0; Composite Activity - Score ([6]; Liver): Active |
| O=C1C(O)=C([C@H]2CC[C@H](c3ccc(Cl)cc3)CC2)C(=O)c2ccccc21 [ATOVAQUONE] | Inactive | 0 | < 4 | Inactive | 0 | < 4 | Inactive | 18.2 | < 4 | Inactive | 9.1 | < 4 | Inactive | 18.2 | < 4 | 0 | 0 | Inactive | – |
| O=C(O)CCCCCCCC(=O)O [AZELAIC ACID] | Inactive | 0 | < 4 | Inactive | 0 | < 4 | Inactive | 0 | < 4 | Inactive | 0 | < 4 | Inactive | 0 | < 4 | 0 | 0 | Inactive | – |
| CN1CCCC(n2nc(Cc3ccc(Cl)cc3)c3ccccc3c2=O)CC1 (configuration not stated) [AZELASTINE] | Inactive | 0 | < 4 | Inactive | 0 | < 4 | Inactive | 0 | < 4 | Inactive | 0 | < 4 | Inactive | 0 | < 4 | 0 | 0 | Inactive | – |
| CC[C@H]1OC(=O)[C@H](C)[C@@H](O[C@H]2C[C@@](C)(OC)[C@@H](O)[C@H](C)O2)[C@H](C)[C@@H](O[C@@H]2O[C@H](C)C[C@H](N(C)C)[C@H]2O)[C@](C)(O)C[C@@H](C)CN(C)[C@H](C)[C@@H](O)[C@]1(C)O [AZITHROMYCIN] | Inactive | 1 | >= 4 | Inactive | 1 | >= 4 | Inactive | 2.9 | >= 4 | Inactive | 0.8 | >= 4 | Inactive | 2.3 | >= 4 | 0 | 0 | Inactive | – |
